Data as given in PMC12314052 (Nature Communications, 2025).
Residue numbers refer to the chain shown, from its start.

Columns and labels:
[1] = test system: Gαq-coupled mAChRs (M1, M3, M5); conditions: M1, M3, M5 mAChRs ref 27; cited from earlier work
hM5 mAChR [2] = target: T1, hM5 mAChR (Homo sapiens, UniProt P08912); test: Inositol monophosphate (IP1) accumulation assay, ML380-ACh interaction; type: cell-based; conditions: WT M5 mAChR, CHO cells
T1 construct: expressed in transfected cells
T1 sequence (P08912 1-532): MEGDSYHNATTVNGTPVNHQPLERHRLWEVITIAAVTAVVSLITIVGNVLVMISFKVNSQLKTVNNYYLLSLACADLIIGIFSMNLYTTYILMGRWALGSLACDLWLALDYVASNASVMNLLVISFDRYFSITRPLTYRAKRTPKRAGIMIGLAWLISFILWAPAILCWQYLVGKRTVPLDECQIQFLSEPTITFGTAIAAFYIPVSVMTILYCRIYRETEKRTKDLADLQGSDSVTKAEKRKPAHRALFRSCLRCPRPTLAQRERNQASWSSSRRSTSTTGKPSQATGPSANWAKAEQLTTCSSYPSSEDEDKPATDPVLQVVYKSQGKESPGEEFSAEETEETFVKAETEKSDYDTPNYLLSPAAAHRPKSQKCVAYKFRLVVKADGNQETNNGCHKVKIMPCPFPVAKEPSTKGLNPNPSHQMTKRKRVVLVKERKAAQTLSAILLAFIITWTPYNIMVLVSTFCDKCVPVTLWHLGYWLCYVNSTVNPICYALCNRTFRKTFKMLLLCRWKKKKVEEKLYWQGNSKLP
Procedure: (§1) FlpIn CHO cells stably expressing either WT or mutant hM5 mAChR were seeded in clear, flat bottom 96-well plates at a density of 10,000−25,000 cells per well (depending on the cell line) one day prior to the assay. The optimal cell density for each line was chosen based on achieving an IP1 response that fell within the linear range of the IP1 standard curve. On the assay day, the medium was replaced with stimulation buffer (Hanks’ balanced salt solution (HBSS) containing 10 mM HEPES, 1.3 mM CaCl2, and 30 mM LiCl, pH 7.4) and allowed to incubate for 60 minutes at 37 °C before ligand stimulation. After this pre-incubation, the buffer was replaced, and cells were exposed to ligands for 60 minutes at 37 °C in a 5% CO2 atmosphere, with a total assay volume of 100 μL. Following the 60-minute stimulation, ligands were removed by rapid removal of buffer. Cells were lysed by freeze-thawing in 30 μL of stimulation buffer. IP1 accumulation was then quantified using the HTRF IP-One assay kit (Cisbio), with fluorescence measured on an EnVision multilabel plate reader (PerkinElmer).
(§2) All data were analysed using GraphPad Prism 10 (GraphPad Software, San Diego, CA). The interaction between orthosteric agonist and allosteric modulator in functional assays was analysed using an operational model of allosterism to determine functional modulation (log αβ) and affinity (pKB) parameters. Radioligand saturation binding experiments with [^3H]-NMS to determine Bmax and pKD values were determined using a one site – specific binding equation in Prism 10^31. For the radioligand binding interaction of orthosteric agonist with various concentrations of allosteric modulator, the data were fit to an allosteric ternary complex model to derive pKB and α binding cooperativity parameters. All affinity, potency, cooperativity, and efficacy parameters were estimated as logarithms. To ensure model convergence in all instances, allosteric parameters were determined from the respective allosteric models, which were globally fitted to all individual datasets for each allosteric modulator at each receptor construct. […]

hM5 mAChR [3] = test: as above; type: cell-based, human; conditions: ECV allosteric site alanine mutants of M5 mAChR, CHO cells
Procedure: as §1, §2

hM5 mAChR [4] = target: T2, hM5 mAChR (Homo sapiens, UniProt P08912, A113V/G152A/L156V); test: as above; type: cell-based; conditions: M5 EH4 pocket mutant (A113V, G152A, L156V), CHO cells
T2 construct: expressed in transfected cells
T2 sequence (P08912 1-532 A113V/G152A/L156V): T1 sequence (P08912 1-532) with A113V, G152A, L156V
Procedure: as §1, §2

[5] = cited from earlier work
ACh-bound M5 mAChR = target: T3, ACh-bound M5 mAChR (Homo sapiens, UniProt P08912); test: Binding affinity for the ACh-bound receptor (chemical probe statement); conditions: determined in this study and others
T3 sequence (P08912 1-532): T1 sequence (P08912 1-532)

hM5 mAChR [6] = test: [3H]-NMS equilibrium radioligand binding, interaction of ACh and allosteric modulator; set-up: species or system human
Procedure: FlpIn CHO cells stably expressing WT hM5 mAChR or mutants were plated at 25,000 cells per well in 96-well isoplates (PerkinElmer Life Sciences) and incubated overnight at 37 °C in a 5% CO2 incubator. The following day, the cells were washed with PBS and incubated in 20 mM HEPES, 100 mM NaCl, 10 mM MgCl2, pH 7.4. For saturation binding experiments, the cells were incubated with varying concentrations of the orthosteric antagonist [^3H]-N-methylscopolamine ([^3H]-NMS; specific activity, 70 Ci/mmol, Perkin Elmer) in a final volume of 100 μL for 6 hours at room temperature. […] Radioactivity was measured by adding 100 μL of Optiphase Supermix scintillation fluid (PerkinElmer) and counted using a MicroBeta^2 Plate Counter (PerkinElmer Life Sciences).
All data were analysed using GraphPad Prism 10 (GraphPad Software, San Diego, CA). The interaction between orthosteric agonist and allosteric modulator in functional assays was analysed using an operational model of allosterism to determine functional modulation (log αβ) and affinity (pKB) parameters. Radioligand saturation binding experiments with [^3H]-NMS to determine Bmax and pKD values were determined using a one site – specific binding equation in Prism 10^31. […]

Row | SMILES | Effect on ACh signalling [1] | Activity of ML380 and cooperativity with ACh (hM5 mAChR [2]) | ML380 function at ECV alanine mutants (hM5 mAChR [3]) | Change in ML380 affinity (pKB) compared to WT (hM5 mAChR [4]) | CNS penetration [5] | Partition coefficients ([5]; limited in vivo utility ref 25) | Kd (ACh-bound M5 mAChR) [nM] | ML380 cooperativity with ACh versus WT (hM5 mAChR [6]; M5/M2 TM1,7,h8 chimera) | ML380's ability to modulate ACh binding (hM5 mAChR [6]; M5/M2 TM2,3,4 and M5/M2 TM3,4,5 chimeras (swapping TM2-5))
1 | O=C1C(=O)N(Cc2ccc(Br)cc2)c2ccccc21 [VU0119498] | enhanced | – | – | – | – | – | – | – | –
2 | CCN(Cc1ccccc1C(F)(F)F)C(=O)C1CCN(S(=O)(=O)c2ccc3[nH]ncc3c2)CC1 [ML380, 1-((1H-indazol-5-yl)sulfoneyl)-N-ethyl-N-(2-(trifluoromethyl)benzyl)piperidine-4-carboxamide] | – | both agonism and positive cooperativity with ACh | retained its ability to bind, activate, and modulate receptor function | no significant change in affinity | penetrate the CNS | poor | ~575 | increased | completely abolished
